From patent US20110008888A1, “Novel Genetic Approaches to Reduce or Inhibit Tumorgenicity of Human Embryonic Stem Cells and Derivatives Following Transplantation” (The John Hopkins University, priority 2005, published 2011)
Entries after “also recorded” stand apart in the source; their conditions may differ. Where two headings read alike, the source gives them in different places.

What was measured:
[1] = system: delayed rectifier K+ currents (IKDR) in mESCs; assay: Whole-cell patch clamp, block of IKDR in undifferentiated mESCs; type: cell-based, mouse; settings: for IC50: whole-cell patch clamp, room temperature
mESCs = assay: Cell proliferation assay, mESCs (viable cell count after 48 hours); type: cell-based, mouse; settings: for EC50: mESCs, cell number after 48 hours, read-out: half-effective concentration (EC50) for inhibition of mESC proliferation; for effect on proliferation of mESCs (words): dose-dependent, p<0.05
hESCs = assay: Cell proliferation assay, hESCs (colony parameters after 6 days); type: cell-based, human; settings: for effect on proliferation of hESCs: dose-dependent, p<0.05
ESCs = assay: Cytotoxic effects of K+ channel blockers on ESCs; settings: high concentrations
IKDR in hESCs = assay: Whole-cell patch clamp, block of IKDR in undifferentiated hESCs; type: cell-based, human; settings: pluripotent hESCs (H1)

Compound | IC50 ([1]; undifferentiated mESCs) | EC50 (mESCs; Mus musculus) | effect on proliferation of mESCs (words) (mESCs) | effect on proliferation of hESCs (hESCs) | cytotoxic effects (ESCs) | IKDR component sensitive to blocker ([1]; mESCs, 100 nM IBTX) | current inhibition of IKDR in mESCs ([1]; undifferentiated mESCs, IBTX 100 nM, n=3) | IC50 (IKDR in hESCs) | effect on proliferation of mESCs (words) (mESCs; listed as TEA+) | EC50 (mESCs) | EC50 (hESCs; hESCs, colony parameters after 6 days, read-out: EC50 for inhibition of hESC proliferation)
Nc1ccncc1 [4-AP, 4-aminopyridine] | 550 ± 170 µM | 4 ± 1.8 mM | significantly reduced | significantly reduced | – | – | – | – | – | – | –
iberiotoxin [IBTX] | – | – | significantly reduced; also recorded: dose-dependently reduced | significantly reduced | cytotoxic effects | sensitive | 33.2±12.7% | – | – | – | –
CC[N+](CC)(CC)CC [TEA] | 1400 ± 380 µM | – | significantly reduced | significantly reduced | – | – | – | 2.1 ± 0.2 mM | significantly inhibited | 11.9 ± 1.2 mM | 3.8 ± 0.1 mM
